In the CheMixHub viscosity set:
“And” between values parts separate entries of the source, which are not always exact repeats. Equal entries are not always repeated.

Assay: xn = mol fraction of the nth substance listed

NCC(=O)[O-].[Na+] + O
viscosity [mPa·s], 101 kPa
Details | x1 = 0.01 | x1 = 0.0194 | x1 = 0.0289 | x1 = 0.0371 | x1 = 0.048
298.15 K | 1.124 | 1.41 | 1.747 | 2.15 | 2.82
308.15 K | 0.904 | 1.106 | 1.369 | 1.662 | 2.13
323.15 K | 0.677 | 0.818 | 0.993 | 1.183 | 1.479

[Cl-].[K+] + O
Details | viscosity
293.15 K, 101 kPa, x1 = 0.005905 | 0.9971 mPa·s and 0.9972 mPa·s
293.15 K, 101 kPa, x1 = 0.009253 | 0.9943 mPa·s
293.15 K, 101 kPa, x1 = 0.01811 | 0.9892 mPa·s and 0.989 mPa·s
293.15 K, 101 kPa, x1 = 0.02711 | 0.9882 mPa·s and 0.9881 mPa·s
293.15 K, 101 kPa, x1 = 0.03656 | 0.9913 mPa·s
293.15 K, 101 kPa, x1 = 0.0468 | 0.9995 mPa·s and 0.9994 mPa·s
293.15 K, 101 kPa, x1 = 0.07583 | 1.047 mPa·s
297.65 K, 100 kPa, x1 = 0.02628 | 0.905 mPa·s and 0.904 mPa·s
298.15 K, 100 kPa, x1 = 0.05933 | 0.932 mPa·s and 0.933 mPa·s
298.15 K, 101 kPa, x1 = 0.005905 | 0.8895 mPa·s
298.15 K, 101 kPa, x1 = 0.009253 | 0.8885 mPa·s and 0.8886 mPa·s
298.15 K, 101 kPa, x1 = 0.01811 | 0.8883 mPa·s and 0.8882 mPa·s
298.15 K, 101 kPa, x1 = 0.02711 | 0.8911 mPa·s and 0.891 mPa·s
298.15 K, 101 kPa, x1 = 0.0468 | 0.908 mPa·s and 0.9079 mPa·s
298.15 K, 101 kPa, x1 = 0.05806 | 0.9238 mPa·s
298.15 K, 101 kPa, x1 = 0.06612 | 0.9378 mPa·s and 0.9377 mPa·s
298.15 K, 101 kPa, x1 = 0.07583 | 0.9577 mPa·s and 0.9576 mPa·s
298.15 K, 101.3 kPa, x1 = 0.00072 | 0.8908 mPa·s
298.15 K, 101.3 kPa, x1 = 0.00162 | 0.8906 mPa·s
298.15 K, 101.3 kPa, x1 = 0.002874 | 0.8911 mPa·s
298.15 K, 101.3 kPa, x1 = 0.004484 | 0.8895 mPa·s
298.15 K, 101.3 kPa, x1 = 0.007154 | 0.8891 mPa·s
298.15 K, 101.3 kPa, x1 = 0.01245 | 0.8885 mPa·s
298.15 K, 101.3 kPa, x1 = 0.0177 | 0.8882 mPa·s
299.15 K, 100 kPa, x1 = 0.07333 | 0.95 mPa·s and 0.949 mPa·s
299.65 K, 100 kPa, x1 = 0.04316 | 0.888 mPa·s
300.15 K, 100 kPa, x1 = 0.008975 | 0.86 mPa·s and 0.858 mPa·s
303.15 K, 101 kPa, x1 = 0.005905 | 0.7997 mPa·s
303.15 K, 101 kPa, x1 = 0.009253 | 0.8005 mPa·s and 0.8003 mPa·s
303.15 K, 101 kPa, x1 = 0.01811 | 0.8034 mPa·s and 0.8032 mPa·s
303.15 K, 101 kPa, x1 = 0.03656 | 0.8174 mPa·s
303.15 K, 101 kPa, x1 = 0.0468 | 0.8296 mPa·s and 0.8294 mPa·s
303.15 K, 101 kPa, x1 = 0.05806 | 0.8467 mPa·s and 0.8466 mPa·s
303.15 K, 101 kPa, x1 = 0.06612 | 0.8611 mPa·s and 0.8612 mPa·s
303.15 K, 101 kPa, x1 = 0.07583 | 0.8802 mPa·s and 0.8799 mPa·s
307.15 K, 100 kPa, x1 = 0.05933 | 0.798 mPa·s and 0.799 mPa·s
308.15 K, 100 kPa, x1 = 0.05933 | 0.793 mPa·s and 0.794 mPa·s
308.15 K, 101.3 kPa, x1 = 0.00072 | 0.7204 mPa·s
308.15 K, 101.3 kPa, x1 = 0.00162 | 0.721 mPa·s
308.15 K, 101.3 kPa, x1 = 0.007154 | 0.7241 mPa·s
308.15 K, 101.3 kPa, x1 = 0.01245 | 0.7273 mPa·s
308.15 K, 101.3 kPa, x1 = 0.0177 | 0.7305 mPa·s
308.65 K, 100 kPa, x1 = 0.02628 | 0.738 mPa·s and 0.737 mPa·s
308.65 K, 100 kPa, x1 = 0.04316 | 0.761 mPa·s and 0.759 mPa·s
309.15 K, 100 kPa, x1 = 0.008975 | 0.717 mPa·s
309.15 K, 100 kPa, x1 = 0.07333 | 0.805 mPa·s
313.15 K, 101 kPa, x1 = 0.005905 | 0.6585 mPa·s
313.15 K, 101 kPa, x1 = 0.009253 | 0.661 mPa·s
313.15 K, 101 kPa, x1 = 0.01811 | 0.6685 mPa·s and 0.6683 mPa·s
313.15 K, 101 kPa, x1 = 0.02711 | 0.6774 mPa·s
313.15 K, 101 kPa, x1 = 0.03656 | 0.6885 mPa·s
313.15 K, 101 kPa, x1 = 0.0468 | 0.7028 mPa·s
313.15 K, 101 kPa, x1 = 0.05806 | 0.7211 mPa·s
313.15 K, 101 kPa, x1 = 0.06612 | 0.7359 mPa·s
313.15 K, 101 kPa, x1 = 0.07583 | 0.7551 mPa·s
316.15 K, 100 kPa, x1 = 0.008975 | 0.629 mPa·s and 0.63 mPa·s
317.65 K, 100 kPa, x1 = 0.02628 | 0.631 mPa·s
317.65 K, 100 kPa, x1 = 0.05933 | 0.686 mPa·s
318.15 K, 100 kPa, x1 = 0.07333 | 0.705 mPa·s and 0.706 mPa·s
318.15 K, 101.3 kPa, x1 = 0.00072 | 0.5972 mPa·s
318.15 K, 101.3 kPa, x1 = 0.00162 | 0.5983 mPa·s
318.15 K, 101.3 kPa, x1 = 0.002874 | 0.6 mPa·s
318.15 K, 101.3 kPa, x1 = 0.004484 | 0.601 mPa·s
318.15 K, 101.3 kPa, x1 = 0.007154 | 0.6037 mPa·s
319.15 K, 100 kPa, x1 = 0.04316 | 0.643 mPa·s and 0.64 mPa·s
323.15 K, 101 kPa, x1 = 0.005905 | 0.554 mPa·s
323.15 K, 101 kPa, x1 = 0.01811 | 0.5673 mPa·s
323.15 K, 101 kPa, x1 = 0.02711 | 0.5782 mPa·s
323.15 K, 101 kPa, x1 = 0.0468 | 0.6058 mPa·s
323.15 K, 101 kPa, x1 = 0.05806 | 0.6242 mPa·s
323.15 K, 101 kPa, x1 = 0.06612 | 0.6389 mPa·s
323.15 K, 101 kPa, x1 = 0.07583 | 0.6575 mPa·s

CCC(C)Cl (configuration not stated) + C1CCOC1
298.15 K, 101 kPa
Details | viscosity [mPa·s]
x2 = 0.0544 | 0.3967
x2 = 0.111 | 0.3999
x2 = 0.2078 | 0.4057
x2 = 0.2947 | 0.411
x2 = 0.3996 | 0.4176
x2 = 0.5075 | 0.4246
x2 = 0.6041 | 0.4313
x2 = 0.7055 | 0.4387
x2 = 0.8076 | 0.4469
x2 = 0.9065 | 0.4551
x2 = 0.9544 | 0.4592

CCCC#N + CCC(C)O
viscosity [mPa·s], 101.33 kPa
Details | x2 = 0.1016 | x2 = 0.1946 | x2 = 0.2965 | x2 = 0.3938 | x2 = 0.4949 | x2 = 0.5951 | x2 = 0.6966 | x2 = 0.7945 | x2 = 0.8999
298.15 K | 0.572 | 0.605 | 0.652 | 0.717 | 0.811 | 0.945 | 1.141 | 1.435 | 1.982
308.15 K | 0.508 | 0.532 | 0.567 | 0.616 | 0.685 | 0.782 | 0.921 | 1.123 | 1.478
318.15 K | 0.454 | 0.472 | 0.499 | 0.536 | 0.59 | 0.658 | 0.758 | 0.898 | 1.135

Brc1ccccc1 + OCCOCCOCCO
viscosity [mPa·s], 101 kPa
Details | 298.15 K | 308.15 K
x2 = 0.0462 | 1.316 | 1.168
x2 = 0.1502 | 2.173 | 1.769
x2 = 0.2493 | 3.39 | 2.568
x2 = 0.3505 | 5.164 | 3.674
x2 = 0.4433 | 7.374 | 5.002
x2 = 0.4974 | 8.957 | 5.935
x2 = 0.5484 | 10.66 | 6.933
x2 = 0.6475 | 14.61 | 9.221
x2 = 0.7514 | 19.62 | 12.15
x2 = 0.8484 | 25.03 | 15.37
x2 = 0.937 | 30.42 | 18.72
